According to the NIST ThermoML archive (doi:10.1016/j.jct.2007.04.005):
Numbers after ± are expanded uncertainties.

Test: xn = mol fraction of the nth substance listed
Conditions: Liquid, x1 = 1

C1CCCCC1 [cyclohexane] + CCCCCCCCC
mass density [kg/m3]
Conditions | 298.15 K | 308.15 K | 318.15 K | 328.15 K
100 kPa | 773.8 ± 0.5 | 764.4 ± 0.5 | 754.8 ± 0.6 | 745.4 ± 0.5
101 kPa | 773.8 ± 0.49 | 764.38 ± 0.5 | 754.99 ± 0.52 | 745.55 ± 0.53
2130 kPa | 775.5 ± 0.6 | 766.2 ± 0.6 | 756.7 ± 0.6 | 746.6 ± 0.6
4150 kPa | 777.2 ± 0.6 | 767.9 ± 0.7 | 758.7 ± 0.7 | 749.6 ± 0.7
6180 kPa | 778.8 ± 0.7 | 769.7 ± 0.7 | 760.6 ± 0.8 | 751.6 ± 0.8
8210 kPa | 780.4 ± 0.8 | 771.4 ± 0.8 | 762.4 ± 0.8 | 753.6 ± 0.9
10230 kPa | 782 ± 0.8 | 773.1 ± 0.9 | 764.2 ± 0.9 | 755.5 ± 0.9
11250 kPa | 782.8 ± 0.9 | 773.9 ± 0.9 | 765.1 ± 0.9 | 756.4 ± 1
12260 kPa | 783.5 ± 0.9 | 774.7 ± 0.9 | 766 ± 1 | 757.4 ± 1
14290 kPa | 785 ± 1 | 776.4 ± 1 | 767.7 ± 1 | 759.2 ± 1.1
16310 kPa | 786.5 ± 1 | 777.9 ± 1.1 | 769.4 ± 1.1 | 761 ± 1.1
18340 kPa | 788 ± 1.1 | 779.5 ± 1.1 | 771.1 ± 1.2 | 762.8 ± 1.2
20370 kPa | 789.4 ± 1.1 | 781 ± 1.2 | 772.7 ± 1.2 | 764.5 ± 1.3
22390 kPa | 790.9 ± 1.2 | 782.5 ± 1.2 | 774.3 ± 1.3 | 766.2 ± 1.3
24420 kPa | 792.2 ± 1.3 | 784 ± 1.3 | 775.8 ± 1.3 | 767.9 ± 1.4
26450 kPa | 793.6 ± 1.3 | 785.5 ± 1.4 | 777.3 ± 1.4 | 769.6 ± 1.4
28470 kPa | 794.9 ± 1.4 | 786.9 ± 1.4 | 778.8 ± 1.5 | 771.2 ± 1.5
29490 kPa | 795.6 ± 1.4 | 787.6 ± 1.4 | 779.6 ± 1.5 | 772 ± 1.5
30500 kPa | 796.1 ± 1.4 | 788.3 ± 1.5 | 780.3 ± 1.5 | 772.7 ± 1.6
32530 kPa | 797.5 ± 1.5 | 789.7 ± 1.5 | 781.7 ± 1.6 | 774.3 ± 1.6
34550 kPa | 798.7 ± 1.5 | 791 ± 1.6 | 783.2 ± 1.6 | 775.8 ± 1.7
36580 kPa | 800 ± 1.6 | 792.4 ± 1.6 | 784.6 ± 1.7 | 777.3 ± 1.7
38600 kPa | 801.2 ± 1.6 | 793.7 ± 1.7 | 786 ± 1.8 | 778.8 ± 1.8
39620 kPa | 801.7 ± 1.7 | 794.3 ± 1.7 | 786.7 ± 1.8 | 779.4 ± 1.8
